# Reference: patent US20230105212A1, “BIPHENYL DERIVATIVE INHIBITOR, PREPARATION METHOD THEREFOR AND USE THEREOF” (SHANGHAI HANSOH BIOMEDICAL CO., LTD., priority 2020, published 2023)
# Target: T1, hERG potassium channel (Homo sapiens, UniProt Q12809)
# T1 construct: expressed in transfected cells; host or cells: CHO-hERG cells
# Assay: Inhibitory activity test of hERG potassium channel (Qpatch, CHO-hERG cells)
# Type: cell-based
# Conditions: 6 concentrations up to 40 μM
# Experimental: Test Embodiment 9. Inhibitory Activity Test of hERG Potassium Channel
# 1.1 CHO-hERG cells were cultured in a 175 cm^2 culture flask. When the cell density reached 60 to 80%, the culture medium was removed, washed with 7 mL of PBS, and then digested with 3 mL of Detachin.
# 1.2 After the digestion was completed, 7 mL of culture medium was added to neutralize, then centrifuged, and the supernatant was aspirated, and 5 mL of culture medium was added to resuspend to ensure the cell density was 2 to 5×10^6/mL.
# Single-cell high-impedance sealing and whole-cell pattern formation were all performed automatically by the Qpatch instrument. After the whole-cell recording pattern was obtained, the cell was clamped at −80 mV, before a +40 mV depolarizing stimulus for 5 s was given, a pre-voltage of −50 mV for 50 ms was given, then repolarized to −50 mV for 5 s, and then returned to −80 mV. This voltage stimulus was applied every 15 seconds, and recorded for 2 minutes, then the extracellular solution was given and then recorded for 5 minutes. Then the dosing process was started. The compound concentration started from the lowest test concentration, and each test concentration was administered for 2.5 minutes. After all concentrations were continuously administered, the positive control compound 3 μM Cisapride was administered. […]
# The experimental data was analyzed by XLFit software.
# T1 sequence (Q12809 whole entry): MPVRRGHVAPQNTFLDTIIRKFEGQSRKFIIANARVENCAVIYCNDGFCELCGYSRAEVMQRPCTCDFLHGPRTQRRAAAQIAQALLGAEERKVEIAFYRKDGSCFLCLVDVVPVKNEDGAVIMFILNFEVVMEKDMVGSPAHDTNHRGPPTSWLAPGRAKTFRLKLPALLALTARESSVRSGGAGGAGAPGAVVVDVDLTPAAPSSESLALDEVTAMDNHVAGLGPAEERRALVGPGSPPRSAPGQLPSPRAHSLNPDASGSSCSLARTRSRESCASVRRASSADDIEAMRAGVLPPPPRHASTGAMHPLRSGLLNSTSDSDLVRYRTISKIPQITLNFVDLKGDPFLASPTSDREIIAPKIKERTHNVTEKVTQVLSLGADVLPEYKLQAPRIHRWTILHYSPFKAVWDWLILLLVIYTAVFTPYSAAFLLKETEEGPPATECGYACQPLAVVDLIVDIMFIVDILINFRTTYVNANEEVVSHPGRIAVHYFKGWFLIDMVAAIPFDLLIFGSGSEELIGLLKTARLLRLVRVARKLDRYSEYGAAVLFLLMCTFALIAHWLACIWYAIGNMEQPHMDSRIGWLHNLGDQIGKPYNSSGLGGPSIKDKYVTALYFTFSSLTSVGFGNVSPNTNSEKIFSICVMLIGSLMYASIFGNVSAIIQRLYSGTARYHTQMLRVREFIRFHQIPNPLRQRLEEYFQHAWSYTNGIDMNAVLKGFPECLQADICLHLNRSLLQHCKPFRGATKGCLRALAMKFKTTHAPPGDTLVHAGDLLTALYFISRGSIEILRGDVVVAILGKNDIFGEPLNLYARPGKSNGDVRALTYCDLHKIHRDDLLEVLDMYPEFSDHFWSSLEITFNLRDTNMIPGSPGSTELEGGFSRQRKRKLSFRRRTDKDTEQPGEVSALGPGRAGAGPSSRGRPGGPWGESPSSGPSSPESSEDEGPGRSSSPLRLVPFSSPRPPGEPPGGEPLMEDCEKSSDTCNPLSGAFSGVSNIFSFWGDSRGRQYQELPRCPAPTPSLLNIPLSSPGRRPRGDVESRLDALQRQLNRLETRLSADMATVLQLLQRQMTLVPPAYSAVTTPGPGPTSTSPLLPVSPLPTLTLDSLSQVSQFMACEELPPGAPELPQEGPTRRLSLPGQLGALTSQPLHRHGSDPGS
smiles,measurement,value
"COc1nc(-c2cccc(-c3cccc(NC(=O)c4nc5c(n4C)CCN(C)C5)c3Cl)c2Cl)ncc1CN1CC(CO)C1 [Embodiment 223, N-(2,2′-Dichloro-3′-(5-((3-(hydroxymethyl)azetidin-1-yl)methyl)-4-methoxypyrimidin-2-yl)-[1,1′-biphenyl]-3-yl)-1,5-dimethyl-4,5,6,7-tetrahydro-1H-imidazo[4,5-c]pyridine-2-carboxamide]",IC50,14.8 µM
